Results as given in patent US6979686B1, “Substituted pyrazoles as p38 kinase inhibitors” (Pharmacia Corporation, priority 2001, dated 2005).
Read-outs that look alike come from different tables or passages of the source.

Tests used:
[1] = test system: TNF-α, U937 human histiocytic lymphoma cell line; test: LPS stimulation of TNF production by U937 cells; format: cell-based; details: for IC50: human U937 cells stimulated with LPS, read-out: U937 Cell IC50; for inhibition at 1 µM: U-937, @ 1.0 uM, read-out: U937 Cell % inhib @ conc.; for inhibition at 1 µM / U937 Cell % inhib @ conc. (uM): U937 cells stimulated with LPS; for U937 Cell % inhib @ conc. (uM): @ 1.0 uM
Description: Maintenance and Differentiation of the U937 Human Histiocytic Lymphoma Cell Line:
Fifty million cells in 100 ml media were induced to terminal monocytic differentiation by 24 hour incubation with 20 ng/ml phorbol 12-myristate 13-acetate (Sigma). The cells were washed by centrifugation (200×g for 5 min) and resuspended in 100 ml fresh medium. After 24-48 hours, the cells were harvested, centrifuged, and resuspended in culture medium at 2 million cells/ml.
LPS Stimulation of TNF Production by U937 Cells:
Compounds were prepared as 10 mM stock solutions in DMSO and diluted in culture medium to yield a final DMSO concentration of 0.1% in the cell assay. LPS (E coli, 100 ng/ml final concentration) was then added at a volume of 0.02 ml. After 4 hour incubation at 37° C., the amount of TNF-α released in the culture medium was quantitated by ELISA. Inhibitory potency is expressed as IC50 (μM).
In vitro whole cell assay for measuring the ability of the compounds to inhibit TNF production in human U937 cells stimulated with LPS are shown in the column identified as: • “U937 Cell IC50, uM or % inhib @ conc., (uM)”

[2] = biological target: T1, human p38 kinase alpha (Homo sapiens, UniProt Q16539); test: p38 kinase in vitro assay, phosphorylation of biotinylated PHAS-I with 32P-ATP; format: biochemical; details: for IC50: in vitro P38-alpha kinase inhibition, read-out: P38 alpha kinase IC50
T1 construct: GST (N, cleaved yes); made in house; host or cells: E. coli DH10B
T1 sequence (Q16539 whole entry): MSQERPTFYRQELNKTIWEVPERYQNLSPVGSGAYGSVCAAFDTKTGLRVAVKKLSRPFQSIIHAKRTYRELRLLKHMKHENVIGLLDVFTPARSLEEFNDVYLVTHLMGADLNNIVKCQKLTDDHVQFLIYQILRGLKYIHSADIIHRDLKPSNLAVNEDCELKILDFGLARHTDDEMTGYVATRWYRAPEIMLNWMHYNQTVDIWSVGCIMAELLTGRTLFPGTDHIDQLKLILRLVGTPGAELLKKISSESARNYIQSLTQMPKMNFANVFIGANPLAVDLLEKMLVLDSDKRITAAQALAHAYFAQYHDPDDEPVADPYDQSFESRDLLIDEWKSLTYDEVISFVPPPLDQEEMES

[3] = Homo sapiens, U-937, TNF production

SMILES: COc1ccc(CC(=O)NC(Cc2ccccc2)c2[nH]nc(-c3ccc(F)cc3)c2-c2ccncc2)cc1 (stereo not shown) [Example B-0816]
- IC50 [1, 3]: > 1 µM
- IC50 [2]: 3.46 µM

SMILES: Cc1ccc(C(=O)NC(Cc2ccccc2)c2[nH]nc(-c3ccc(F)cc3)c2-c2ccncc2)cc1 (stereo not shown) [Example B-0818]
- IC50 [1, 3]: > 1 µM
- IC50 [2]: 4.97 µM

SMILES: O=C(NC(Cc1ccccc1)c1[nH]nc(-c2ccc(F)cc2)c1-c1ccncc1)c1ccccc1 (stereo not shown) [Example B-0819]
- IC50 [1, 3]: > 1 µM
- IC50 [2]: 1.08 µM

SMILES: O=C(NC(Cc1ccccc1)c1[nH]nc(-c2ccc(F)cc2)c1-c1ccncc1)C1CCCC1 (stereo not shown) [Example B-0820]
- inhibition at 1 µM ([1]; Homo sapiens, TNF production): 3%
- IC50 [2]: 1.64 µM

SMILES: O=C(NC(Cc1ccccc1)c1[nH]nc(-c2ccc(F)cc2)c1-c1ccncc1)c1ccccn1 (stereo not shown) [Example B-0823]
- IC50 [1, 3]: > 1 µM
- IC50 [2]: 2.39 µM

SMILES: CC(C)C(=O)NC(Cc1ccccc1)c1[nH]nc(-c2ccc(F)cc2)c1-c1ccncc1 (stereo not shown) [Example B-0831]
- IC50 [1, 3]: > 1 µM
- IC50 [2]: 0.9 µM

SMILES: O=C(NC(Cc1ccccc1)c1[nH]nc(-c2ccc(F)cc2)c1-c1ccncc1)C1CC1 (stereo not shown) [Example B-0837]
- IC50 ([1]; TNF production): > 1 µM
- IC50 [2]: 1.96 µM

SMILES: CC(=O)OC(C)C(=O)NC(Cc1ccccc1)c1[nH]nc(-c2ccc(F)cc2)c1-c1ccncc1 (stereo not shown) [Example B-0841]
- U937 Cell % inhib @ conc. (uM) ([1]; TNF production): 36.0% @
- IC50 [2]: 0.32 µM

SMILES: COc1ccccc1C(=O)NC(Cc1ccccc1)c1[nH]nc(-c2ccc(F)cc2)c1-c1ccncc1 (stereo not shown) [Example B-0843]
- IC50 [1, 3]: > 1 µM
- IC50 [2]: 0.61 µM

SMILES: O=C(NC(Cc1ccccc1)c1[nH]nc(-c2ccc(F)cc2)c1-c1ccncc1)c1ccccc1C(F)(F)F (stereo not shown) [Example B-0844]
- inhibition at 1 µM ([1]; Homo sapiens, TNF production): 25%
- IC50 [2]: 0.4 µM

SMILES: COc1ccc(CC(=O)NC(Cc2ccccc2)c2[nH]nc(-c3ccc(F)cc3)c2-c2ccncc2)cc1OC (stereo not shown) [Example B-0847]
- inhibition at 1 µM ([1]; Homo sapiens, TNF production): 21%
- IC50 [2]: 0.73 µM

SMILES: CNC(=O)CCC(NC(=O)C(C)C)c1[nH]nc(-c2ccc(F)cc2)c1-c1ccncc1 (stereo not shown) [Example B-0863]
- inhibition at 1 µM ([1]; Homo sapiens, TNF production): 25%
- IC50 [2]: 0.81 µM

SMILES: CNC(=O)CCC(NC(=O)C1CC1)c1[nH]nc(-c2ccc(F)cc2)c1-c1ccncc1 (stereo not shown) [Example B-0866]
- inhibition at 1 µM ([1]; Homo sapiens, TNF production): 28%
- IC50 [2]: 1.38 µM

SMILES: CNC(=O)CCC(NC(=O)c1cccc(Br)c1)c1[nH]nc(-c2ccc(F)cc2)c1-c1ccncc1 (stereo not shown) [Example B-0867]
- IC50 [1, 3]: > 1 µM
- IC50 [2]: 0.62 µM

SMILES: CNC(=O)CCC(NC(=O)c1ccno1)c1[nH]nc(-c2ccc(F)cc2)c1-c1ccncc1 (stereo not shown) [Example B-0869]
- IC50 [1, 3]: > 1 µM
- IC50 [2]: 4.19 µM

SMILES: CNC(=O)CCC(NC(=O)COC)c1[nH]nc(-c2ccc(F)cc2)c1-c1ccncc1 (stereo not shown) [Example B-0870]
- IC50 [1, 3]: > 1 µM
- IC50 [2]: 3.13 µM

SMILES: CNC(=O)CCC(NC(=O)c1ccccc1OC)c1[nH]nc(-c2ccc(F)cc2)c1-c1ccncc1 (stereo not shown) [Example B-0871]
- IC50 [1, 3]: > 1 µM
- IC50 [2]: 1.9 µM

SMILES: CNC(=O)CCC(NC(=O)Cc1cccc(OC)c1)c1[nH]nc(-c2ccc(F)cc2)c1-c1ccncc1 (stereo not shown) [Example B-0872]
- inhibition at 1 µM ([1]; Homo sapiens, TNF production): 3%
- IC50 [2]: 3.13 µM

SMILES: CNC(=O)CCC(NC(=O)c1ccc(C)cc1)c1[nH]nc(-c2ccc(F)cc2)c1-c1ccncc1 (stereo not shown) [Example B-0873]
- IC50 [1, 3]: > 1 µM
- IC50 [2]: 6.92 µM

SMILES: CNC(=O)CCC(NC(=O)c1ccccc1F)c1[nH]nc(-c2ccc(F)cc2)c1-c1ccncc1 (stereo not shown) [Example B-0874]
- IC50 [1, 3]: > 1 µM
- IC50 [2]: 1.92 µM

SMILES: CNC(=O)CCC(NC(=O)c1ccncc1)c1[nH]nc(-c2ccc(F)cc2)c1-c1ccncc1 (stereo not shown) [Example B-0875]
- inhibition at 1 µM ([1]; Homo sapiens, TNF production): 8%
- IC50 [2]: 2.13 µM

SMILES: CNC(=O)CCC(NS(=O)(=O)Cc1ccccc1)c1[nH]nc(-c2ccc(F)cc2)c1-c1ccncc1 (stereo not shown) [Example B-0876]
- IC50 [1, 3]: > 1 µM
- IC50 [2]: 0.89 µM

SMILES: CCS(=O)(=O)NC(CCC(=O)NC)c1[nH]nc(-c2ccc(F)cc2)c1-c1ccncc1 (stereo not shown) [Example B-0877]
- inhibition at 1 µM ([1]; Homo sapiens, TNF production): 13%
- IC50 [2]: 1.17 µM

SMILES: CNC(=O)CCC(NS(=O)(=O)c1ccccc1F)c1[nH]nc(-c2ccc(F)cc2)c1-c1ccncc1 (stereo not shown) [Example B-0879]
- inhibition at 1 µM ([1]; Homo sapiens, TNF production): 1%
- IC50 [2]: 0.87 µM

SMILES: CNC(=O)CCC(NC(=O)Nc1ccccc1F)c1[nH]nc(-c2ccc(F)cc2)c1-c1ccncc1 (stereo not shown) [Example B-0881]
- IC50 [1, 3]: > 1 µM
- IC50 [2]: 1.36 µM

SMILES: CNC(=O)CCC(NC(=O)Nc1c(C)cccc1C)c1[nH]nc(-c2ccc(F)cc2)c1-c1ccncc1 (stereo not shown) [Example B-0882]
- inhibition at 1 µM ([1]; Homo sapiens, TNF production): 9%
- IC50 [2]: 1.48 µM

SMILES: CCNC(=O)NC(CCC(=O)NC)c1[nH]nc(-c2ccc(F)cc2)c1-c1ccncc1 (stereo not shown) [Example B-0883]
- IC50 [1, 3]: > 1 µM
- IC50 [2]: 1.06 µM

SMILES: O=C(NCCc1[nH]nc(-c2ccc(F)cc2)c1-c1ccncc1)NC(=O)c1ccccc1 [Example B-0934]
- U937 Cell % inhib @ conc. (uM) ([1]; TNF production): 36.0% @
- P38 alpha kinase % inhib @ conc. (uM) ([2]; @ 1.0 uM): 67.0% @

SMILES: O=C(NCCc1[nH]nc(-c2ccc(F)cc2)c1-c1ccncc1)Nc1ccc(Br)cc1 [Example B-0938]
- U937 Cell % inhib @ conc. (uM) ([1]; TNF production): 29.0% @
- P38 alpha kinase % inhib @ conc. (uM) ([2]; @ 1.0 uM): 51.0% @

SMILES: O=C(NCCc1[nH]nc(-c2ccc(F)cc2)c1-c1ccncc1)NCc1ccccc1 [Example B-0939]
- U937 Cell % inhib @ conc. (uM) ([1]; TNF production): 14.0% @
- P38 alpha kinase % inhib @ conc. (uM) ([2]; @ 1.0 uM): 78.0% @

SMILES: CCOC(=O)c1cccc(NC(=O)NCCc2[nH]nc(-c3ccc(F)cc3)c2-c2ccncc2)c1 [Example B-0942]
- U937 Cell % inhib @ conc. (uM) ([1]; TNF production): 2.0% @
- P38 alpha kinase % inhib @ conc. (uM) ([2]; @ 1.0 uM): 82.0% @

SMILES: O=C(NCCc1[nH]nc(-c2ccc(F)cc2)c1-c1ccncc1)Nc1ccc(Cc2ccccc2)cc1 [Example B-0943]
- U937 Cell % inhib @ conc. (uM) ([1]; TNF production): 24.0% @
- P38 alpha kinase % inhib @ conc. (uM) ([2]; @ 10.0 uM): 63.0% @

SMILES: COC(=O)c1ccccc1NC(=O)NCCc1[nH]nc(-c2ccc(F)cc2)c1-c1ccncc1 [Example B-0946]
- U937 Cell % inhib @ conc. (uM) ([1]; TNF production): 31.0% @
- P38 alpha kinase % inhib @ conc. (uM) ([2]; @ 1.0 uM): 76.0% @

SMILES: CCOC(=O)C(NC(=O)NCCc1[nH]nc(-c2ccc(F)cc2)c1-c1ccncc1)C(C)C (stereo not shown) [Example B-0976]
- U937 Cell % inhib @ conc. (uM) ([1]; TNF production): 36.0% @
- P38 alpha kinase % inhib @ conc. (uM) ([2]; @ 1.0 uM): 79.0% @

SMILES: COc1ccc(NC(=O)NCCc2[nH]nc(-c3ccc(F)cc3)c2-c2ccncc2)cc1 [Example B-0978]
- U937 Cell % inhib @ conc. (uM) ([1]; TNF production): 36.0% @
- P38 alpha kinase % inhib @ conc. (uM) ([2]; @ 1.0 uM): 59.0% @

SMILES: O=C(NCCc1[nH]nc(-c2ccc(F)cc2)c1-c1ccncc1)Nc1cccc(Cl)c1Cl [Example B-0980]
- U937 Cell % inhib @ conc. (uM) ([1]; TNF production): 31.0% @
- P38 alpha kinase % inhib @ conc. (uM) ([2]; @ 1.0 uM): 68.0% @

SMILES: COc1ccccc1C(=O)NCCc1[nH]nc(-c2ccc(F)cc2)c1-c1ccncc1 [Example B-0995]
- U937 Cell % inhib @ conc. (uM) ([1]; TNF production): 14.0% @
- P38 alpha kinase % inhib @ conc. (uM) ([2]; @ 1.0 uM): 53.0% @

SMILES: O=C(NCCc1[nH]nc(-c2ccc(F)cc2)c1-c1ccncc1)c1ccc(F)c(F)c1F [Example B-0997]
- U937 Cell % inhib @ conc. (uM) ([1]; TNF production): 22.0% @
- P38 alpha kinase % inhib @ conc. (uM) ([2]; @ 1.0 uM): 69.0% @

SMILES: CC(C)=CC(=O)NCCc1[nH]nc(-c2ccc(F)cc2)c1-c1ccncc1 [Example B-0998]
- U937 Cell % inhib @ conc. (uM) ([1]; TNF production): 25.0% @
- P38 alpha kinase % inhib @ conc. (uM) ([2]; @ 1.0 uM): 67.0% @

SMILES: COc1ccc(CC(=O)NCCc2[nH]nc(-c3ccc(F)cc3)c2-c2ccncc2)cc1OC [Example B-0999]
- U937 Cell % inhib @ conc. (uM) ([1]; TNF production): 24.0% @
- P38 alpha kinase % inhib @ conc. (uM) ([2]; @ 1.0 uM): 61.0% @

SMILES: COc1cccc(CC(=O)NCCc2[nH]nc(-c3ccc(F)cc3)c2-c2ccncc2)c1 [Example B-1001]
- U937 Cell % inhib @ conc. (uM) ([1]; TNF production): 31.0% @
- P38 alpha kinase % inhib @ conc. (uM) ([2]; @ 1.0 uM): 63.0% @

SMILES: O=C(NCCc1[nH]nc(-c2ccc(F)cc2)c1-c1ccncc1)c1ccccc1 [Example B-1003]
- U937 Cell % inhib @ conc. (uM) ([1]; TNF production): 29.0% @
- P38 alpha kinase % inhib @ conc. (uM) ([2]; @ 1.0 uM): 74.0% @

SMILES: O=S(=O)(NCCc1[nH]nc(-c2ccc(F)cc2)c1-c1ccncc1)c1ccc(F)cc1 [Example B-1013]
- U937 Cell % inhib @ conc. (uM) ([1]; TNF production): 7.0% @
- P38 alpha kinase % inhib @ conc. (uM) ([2]; @ 1.0 uM): 85.0% @

SMILES: O=S(=O)(C=Cc1ccccc1)NCCc1[nH]nc(-c2ccc(F)cc2)c1-c1ccncc1 [Example B-1016]
- U937 Cell % inhib @ conc. (uM) ([1]; TNF production): 10.0% @
- P38 alpha kinase % inhib @ conc. (uM) ([2]; @ 1.0 uM): 58.0% @
